Literature values as cited in paper PMC3527451, “A Pilot Randomized, Placebo Controlled, Double Blind Phase I Trial of the Novel SIRT1 Activator SRT2104 in Elderly Volunteers” (PLoS ONE, 2012).

Tested on: DIO mice and ob/ob mice
Settings: e.g. DIO and Lep ob/ob obese mice; cited from earlier work

## Oc1ccc(/C=C/c2cc(O)cc(O)c2)cc1 [resveratrol, reference compound]
  cholesterol, LDL and triglycerides in preclinical models of dyslipidemia, diabetes and obesity: lower cholesterol, LDL and triglycerides
